Experimental data reported in ChEMBL document CHEMBL1201862, “PubChem BioAssay data set” (2004).
Active and inactive are the calls of the source.

How the values were obtained:
[1] = molecular target: T1, Dual specificity protein phosphatase 3 (Homo sapiens, UniProt P51452); assay: SAR VHR1 absorbance Assay for In Vitro dose response studies. [Related pubchem assays (depositor defined):AID1654, AID1661, AID1878, AID1992, AID2004]
[2] = molecular target: T1, Dual specificity protein phosphatase 3; assay: SAR VHR1 Fluorescent Assay for In Vitro dose response studies. [Related pubchem assays (depositor defined):AID1654, AID1661, AID1878, AID1992, AID2004, AID2070, AID2085]; type: functional
[3] = molecular target: NAD-dependent protein deacylase sirtuin-5, mitochondrial (Homo sapiens, UniProt Q9NXA8); assay: SIRT5 desuccinylase inhibitors, dose response, biochemical, fluorescence imaging, cherry-pick, set 5 (AID 720591);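 also: desuccinylation of succinyl peptide AMC substrate read as fluorescence after trypsin release; potency of inhibitors that lower fluorescence and may act on trypsin instead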
[4] = molecular target: T1, Dual specificity protein phosphatase 3; assay: VHR1 phosphatase inhibitors, biochemical (AID 1878)
[5] = molecular target: T1, Dual specificity protein phosphatase 3; assay: VHR1 phosphatase inhibitors, primary screen, biochemical, absorbance, uHTS (AID 1654)
[6] = molecular target: T2, Dual specificity protein phosphatase 6 (Rattus norvegicus, UniProt Q64346); assay: MKP-3 phosphatase inhibitors, primary screen, biochemical, rat enzyme, in vitro (AID 425)
[7] = molecular target: Genome polyprotein (dengue virus type 2, UniProt P29990); assay: Dengue-2 NS5 methyltransferase inhibitors, primary screen, biochemical, confirmation dose response (AID 588689); type: functional
[8] = molecular target: T3, Aminopeptidase N (Plasmodium falciparum FcB1/Columbia, UniProt O96935); assay: P. falciparum M1AAP inhibitors, biochemical, fluorogenic H-Leu-NHMec substrate, 1536-well (AID 1445); parameters: species or system Plasmodium falciparum 3D7, 3D7
T3 sequence (O96935 whole entry): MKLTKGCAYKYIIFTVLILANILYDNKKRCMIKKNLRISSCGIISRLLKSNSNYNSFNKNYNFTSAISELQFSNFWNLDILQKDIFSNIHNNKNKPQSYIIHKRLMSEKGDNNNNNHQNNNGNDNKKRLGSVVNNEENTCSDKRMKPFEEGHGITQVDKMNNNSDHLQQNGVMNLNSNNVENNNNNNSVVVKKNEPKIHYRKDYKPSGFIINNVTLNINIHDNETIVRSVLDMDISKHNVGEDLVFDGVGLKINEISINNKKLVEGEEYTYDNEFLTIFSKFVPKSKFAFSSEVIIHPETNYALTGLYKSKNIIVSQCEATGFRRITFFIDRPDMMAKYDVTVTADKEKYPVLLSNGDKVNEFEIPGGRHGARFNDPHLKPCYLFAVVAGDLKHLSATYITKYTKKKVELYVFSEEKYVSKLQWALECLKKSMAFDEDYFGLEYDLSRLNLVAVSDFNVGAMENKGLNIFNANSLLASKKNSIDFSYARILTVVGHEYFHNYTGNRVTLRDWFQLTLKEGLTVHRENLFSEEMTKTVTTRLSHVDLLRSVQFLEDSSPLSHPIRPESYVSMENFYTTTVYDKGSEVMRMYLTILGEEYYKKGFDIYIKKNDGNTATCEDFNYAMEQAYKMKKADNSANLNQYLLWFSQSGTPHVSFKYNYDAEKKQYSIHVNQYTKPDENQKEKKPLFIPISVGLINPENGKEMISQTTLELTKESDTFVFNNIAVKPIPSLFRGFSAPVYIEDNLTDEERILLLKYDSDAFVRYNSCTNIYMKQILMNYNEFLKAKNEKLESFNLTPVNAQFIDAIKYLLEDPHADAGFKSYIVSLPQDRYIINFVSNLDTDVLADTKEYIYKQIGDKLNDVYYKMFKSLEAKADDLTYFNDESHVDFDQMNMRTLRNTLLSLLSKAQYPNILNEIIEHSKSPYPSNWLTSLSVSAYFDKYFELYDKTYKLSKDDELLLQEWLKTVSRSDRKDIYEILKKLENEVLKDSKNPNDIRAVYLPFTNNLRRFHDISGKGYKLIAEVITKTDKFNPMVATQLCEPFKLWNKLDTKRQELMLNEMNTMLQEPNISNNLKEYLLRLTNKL

[9] = molecular target: T4, Tyrosine-protein phosphatase non-receptor type 7 (Homo sapiens, UniProt P35236); assay: redox-dependent HePTP inhibition, mechanism study, biochemical, fluorescence (AID 2068); type: functional
T4 sequence (P35236 whole entry): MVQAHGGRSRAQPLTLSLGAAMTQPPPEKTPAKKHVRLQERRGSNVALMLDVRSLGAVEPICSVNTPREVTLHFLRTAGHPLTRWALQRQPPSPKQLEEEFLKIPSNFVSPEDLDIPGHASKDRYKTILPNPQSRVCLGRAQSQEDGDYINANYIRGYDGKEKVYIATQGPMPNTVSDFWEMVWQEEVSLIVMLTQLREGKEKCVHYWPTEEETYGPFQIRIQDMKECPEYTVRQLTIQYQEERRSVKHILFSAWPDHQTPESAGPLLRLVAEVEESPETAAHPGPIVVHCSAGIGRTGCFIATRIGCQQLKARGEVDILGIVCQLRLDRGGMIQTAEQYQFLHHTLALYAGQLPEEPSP

[10] = molecular target: T2, Dual specificity protein phosphatase 6; type: functional
[11] = molecular target: DNA (cytosine-5)-methyltransferase 1 (Homo sapiens, UniProt P26358); assay: DNMT1 methyltransferase inhibitors, confirmation, biochemical, fluorescent molecular beacon (AID 602386); type: functional
[12] = test system: Jurkat; assay: antigen receptor-induced NF-kB inhibitors, dose response, Jurkat, luciferase reporter, luminescence, B- and T-cell (AID 489004); type: functional, cell-based; details: Homo sapiens;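 also: NF-kB luciferase reporter Jurkat cells stimulated with PMA plus ionomycin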
[13] = molecular target: T5, Microphthalmia-associated transcription factor (Homo sapiens, UniProt O75030); assay: TRPM1 promoter luciferase signal decrease, dose response, MITF inhibitor project, cell-based, SK-MEL-5, cherry-picked, set 3 (AID 493073); type: functional
T5 sequence (O75030 whole entry): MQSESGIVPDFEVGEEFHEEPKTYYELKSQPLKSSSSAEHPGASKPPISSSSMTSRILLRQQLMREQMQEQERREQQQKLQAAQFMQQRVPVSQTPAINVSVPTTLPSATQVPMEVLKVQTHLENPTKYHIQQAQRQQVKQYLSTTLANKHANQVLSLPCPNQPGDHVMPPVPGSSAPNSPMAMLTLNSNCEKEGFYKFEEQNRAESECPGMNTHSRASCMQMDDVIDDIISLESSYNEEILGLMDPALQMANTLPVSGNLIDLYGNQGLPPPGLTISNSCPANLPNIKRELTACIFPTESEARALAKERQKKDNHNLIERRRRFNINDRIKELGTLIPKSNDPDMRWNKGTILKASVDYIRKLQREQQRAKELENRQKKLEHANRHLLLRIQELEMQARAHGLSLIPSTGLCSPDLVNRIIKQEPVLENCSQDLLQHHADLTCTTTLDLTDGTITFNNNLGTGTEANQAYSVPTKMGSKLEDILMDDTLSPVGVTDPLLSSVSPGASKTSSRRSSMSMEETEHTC

[14] = test system: A-375; assay: MITF: Counter assay: A375 proliferation Measured in Cell-Based System Using Plate Reader - 2084-03_Inhibitor_Dose_DryPowder_Activity. [Related pubchem assays (depositor defined):AID488944]; type: functional; details: Homo sapiens
[15] = cytotoxicity in HEK-293T NF-kB-Luc cells, dose response, cytotoxicity control for B/T-cell NF-kB inhibitor project, cell-based, uHTS hits (AID 489019); type: functional;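 also: IC50 reflects cytotoxicity as loss of cell viability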
[16] = test system: A-375; assay: A375 melanoma cell viability reduction, dose response, counter-screen for MITF modulator project, cherry-pick samples, set 2 (AID 540335); type: functional, cell-based; details: Homo sapiens
[17] = molecular target: Delta-type opioid receptor (Homo sapiens, UniProt P41143); assay: Counterscreen for agonists of heterodimerization of the mu 1 (OPRM1) and delta 1 (OPRD1) opioid receptors: Luminescence-based cell-based high throughput dose response assay to identify agonists of OPRD1 homodimerization. [Related pubchem assays (depositor defined):AID504326, AID504355, AID504692, AID504904, AID504905]; type: functional
[18] = molecular target: Voltage-gated inwardly rectifying potassium channel KCNH2 (Homo sapiens, UniProt Q12809); assay: hERG protection from proarrhythmic block, potency, dose response, cell-based, thallium flux (AID 2121); type: ADME
[19] = molecular target: 5-hydroxytryptamine receptor 5A (Homo sapiens, UniProt P47898); assay: Counterscreen for agonists of OPRM1-OPRD1 heterodimerization: luminescence-based cell-based high throughput dose response assay to identify agonists of 5-hydroxytryptamine (serotonin) 5A receptor (HTR5A). [Related pubchem assays (depositor defined):AID504326, AID504355, AID504692, AID504904, AID504905]; type: functional
[20] = test system: HEK293; assay: inhibitors of LMP1-driven NF-kB reporter, dose response, cell-based, HEK293, luciferase, cherry-pick (AID 588343); type: functional; details: Homo sapiens
[21] = molecular target: Mu-type opioid receptor (Homo sapiens, UniProt P35372); assay: Counterscreen for agonists of heterodimerization of the mu 1 (OPRM1) and delta 1 (OPRD1) opioid receptors: Luminescence-based cell-based high throughput dose response assay to identify agonists of OPRM1 homodimerization.; type: functional;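 also: U2OS cells expressing OPRM1 and beta-arrestin as split beta-galactosidase partners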
Mu-type opioid receptor, sequence (P35372 whole entry): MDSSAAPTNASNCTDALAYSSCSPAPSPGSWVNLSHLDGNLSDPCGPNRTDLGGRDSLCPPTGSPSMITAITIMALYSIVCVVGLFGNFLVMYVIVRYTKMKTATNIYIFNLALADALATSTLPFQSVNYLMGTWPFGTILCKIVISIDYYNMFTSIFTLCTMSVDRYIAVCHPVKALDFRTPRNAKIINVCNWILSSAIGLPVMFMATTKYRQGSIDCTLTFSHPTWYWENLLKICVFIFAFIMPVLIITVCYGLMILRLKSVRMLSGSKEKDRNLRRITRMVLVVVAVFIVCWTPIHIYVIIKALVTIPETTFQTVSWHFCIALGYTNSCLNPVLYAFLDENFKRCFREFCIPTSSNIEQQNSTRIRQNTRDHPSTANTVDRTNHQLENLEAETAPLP

T1 sequence (P51452 whole entry): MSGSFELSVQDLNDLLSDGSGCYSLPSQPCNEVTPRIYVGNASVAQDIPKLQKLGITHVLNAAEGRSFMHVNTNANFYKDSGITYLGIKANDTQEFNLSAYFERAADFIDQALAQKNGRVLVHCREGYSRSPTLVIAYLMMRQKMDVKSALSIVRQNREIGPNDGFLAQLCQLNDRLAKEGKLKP
T2 sequence (Q64346 whole entry): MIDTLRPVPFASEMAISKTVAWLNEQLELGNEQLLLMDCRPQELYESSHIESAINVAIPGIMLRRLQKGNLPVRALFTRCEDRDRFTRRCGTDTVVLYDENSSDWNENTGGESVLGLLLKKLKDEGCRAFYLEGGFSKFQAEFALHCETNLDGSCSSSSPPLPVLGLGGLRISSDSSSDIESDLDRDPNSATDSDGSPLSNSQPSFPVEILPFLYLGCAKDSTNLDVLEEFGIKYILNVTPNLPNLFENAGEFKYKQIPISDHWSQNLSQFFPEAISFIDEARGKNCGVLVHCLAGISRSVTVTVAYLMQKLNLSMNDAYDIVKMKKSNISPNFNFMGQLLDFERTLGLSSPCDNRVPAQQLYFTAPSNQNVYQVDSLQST
Voltage-gated inwardly rectifying potassium channel KCNH2, sequence (Q12809 whole entry): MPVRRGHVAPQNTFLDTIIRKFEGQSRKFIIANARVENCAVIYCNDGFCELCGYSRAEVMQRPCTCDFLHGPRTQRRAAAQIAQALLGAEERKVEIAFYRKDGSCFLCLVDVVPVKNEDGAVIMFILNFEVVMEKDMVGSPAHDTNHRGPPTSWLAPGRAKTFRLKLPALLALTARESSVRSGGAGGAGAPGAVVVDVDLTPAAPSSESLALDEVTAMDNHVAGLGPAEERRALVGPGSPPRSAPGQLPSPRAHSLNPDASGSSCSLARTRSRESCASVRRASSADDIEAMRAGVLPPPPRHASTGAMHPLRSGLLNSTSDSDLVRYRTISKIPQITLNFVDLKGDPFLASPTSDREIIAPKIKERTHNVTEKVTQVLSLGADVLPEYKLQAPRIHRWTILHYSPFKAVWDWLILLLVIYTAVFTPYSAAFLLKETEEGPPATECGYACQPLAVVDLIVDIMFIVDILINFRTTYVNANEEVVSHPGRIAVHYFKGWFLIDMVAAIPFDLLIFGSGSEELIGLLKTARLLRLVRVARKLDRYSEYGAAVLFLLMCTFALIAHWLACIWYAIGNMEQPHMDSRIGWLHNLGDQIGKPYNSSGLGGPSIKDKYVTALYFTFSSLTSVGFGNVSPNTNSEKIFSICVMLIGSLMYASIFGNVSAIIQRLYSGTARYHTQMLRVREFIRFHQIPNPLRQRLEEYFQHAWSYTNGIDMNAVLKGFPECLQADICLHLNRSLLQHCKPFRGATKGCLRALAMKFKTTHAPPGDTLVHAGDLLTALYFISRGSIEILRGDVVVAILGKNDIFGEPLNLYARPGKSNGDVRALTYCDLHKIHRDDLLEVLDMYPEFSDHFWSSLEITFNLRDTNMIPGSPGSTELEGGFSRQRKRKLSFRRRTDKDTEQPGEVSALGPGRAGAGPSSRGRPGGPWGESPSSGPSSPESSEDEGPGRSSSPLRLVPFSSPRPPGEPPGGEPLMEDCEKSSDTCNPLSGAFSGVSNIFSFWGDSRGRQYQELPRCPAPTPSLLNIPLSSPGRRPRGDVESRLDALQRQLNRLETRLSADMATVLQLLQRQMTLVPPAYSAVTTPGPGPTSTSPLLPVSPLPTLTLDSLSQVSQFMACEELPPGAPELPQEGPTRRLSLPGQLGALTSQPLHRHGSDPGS
NAD-dependent protein deacylase sirtuin-5, mitochondrial, sequence (Q9NXA8 whole entry): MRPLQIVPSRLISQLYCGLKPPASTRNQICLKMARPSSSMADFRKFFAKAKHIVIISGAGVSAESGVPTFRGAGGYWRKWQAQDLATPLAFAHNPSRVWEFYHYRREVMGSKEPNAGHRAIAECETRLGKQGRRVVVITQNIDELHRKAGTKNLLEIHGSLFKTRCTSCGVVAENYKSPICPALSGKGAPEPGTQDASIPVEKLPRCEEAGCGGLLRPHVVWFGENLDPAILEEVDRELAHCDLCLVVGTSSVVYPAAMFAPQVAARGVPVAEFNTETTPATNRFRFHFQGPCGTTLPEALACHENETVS
Genome polyprotein, sequence (P29990 2492-3391 limits assumed): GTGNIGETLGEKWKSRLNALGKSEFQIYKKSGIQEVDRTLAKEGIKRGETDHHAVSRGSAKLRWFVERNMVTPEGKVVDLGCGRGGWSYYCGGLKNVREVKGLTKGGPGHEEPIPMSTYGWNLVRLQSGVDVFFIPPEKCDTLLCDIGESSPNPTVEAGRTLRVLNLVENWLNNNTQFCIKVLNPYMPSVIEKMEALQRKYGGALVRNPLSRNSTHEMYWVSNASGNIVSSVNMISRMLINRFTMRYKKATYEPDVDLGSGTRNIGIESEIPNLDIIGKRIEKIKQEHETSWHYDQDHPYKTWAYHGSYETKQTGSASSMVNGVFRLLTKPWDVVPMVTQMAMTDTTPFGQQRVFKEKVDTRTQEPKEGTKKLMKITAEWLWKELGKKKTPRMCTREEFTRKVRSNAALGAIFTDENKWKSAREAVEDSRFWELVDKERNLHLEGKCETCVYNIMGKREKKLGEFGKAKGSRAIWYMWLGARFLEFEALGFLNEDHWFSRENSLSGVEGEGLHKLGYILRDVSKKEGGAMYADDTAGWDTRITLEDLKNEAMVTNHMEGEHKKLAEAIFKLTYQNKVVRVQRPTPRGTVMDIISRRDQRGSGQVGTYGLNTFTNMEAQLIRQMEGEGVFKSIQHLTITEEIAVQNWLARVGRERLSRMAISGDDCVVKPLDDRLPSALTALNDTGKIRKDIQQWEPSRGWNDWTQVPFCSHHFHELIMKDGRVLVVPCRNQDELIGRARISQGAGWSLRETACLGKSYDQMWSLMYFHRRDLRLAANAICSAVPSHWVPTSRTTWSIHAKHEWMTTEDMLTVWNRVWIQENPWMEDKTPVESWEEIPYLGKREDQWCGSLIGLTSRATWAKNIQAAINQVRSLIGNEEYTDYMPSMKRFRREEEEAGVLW
5-hydroxytryptamine receptor 5A, sequence (P47898 whole entry): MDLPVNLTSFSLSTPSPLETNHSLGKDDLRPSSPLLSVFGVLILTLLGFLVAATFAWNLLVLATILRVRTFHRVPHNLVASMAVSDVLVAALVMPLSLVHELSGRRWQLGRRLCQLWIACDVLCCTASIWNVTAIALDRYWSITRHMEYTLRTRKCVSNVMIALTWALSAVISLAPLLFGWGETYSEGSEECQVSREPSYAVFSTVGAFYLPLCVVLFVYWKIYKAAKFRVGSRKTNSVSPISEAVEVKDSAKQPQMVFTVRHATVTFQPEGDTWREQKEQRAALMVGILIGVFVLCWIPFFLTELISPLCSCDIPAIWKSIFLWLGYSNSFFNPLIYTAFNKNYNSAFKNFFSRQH
Delta-type opioid receptor, sequence (P41143 whole entry): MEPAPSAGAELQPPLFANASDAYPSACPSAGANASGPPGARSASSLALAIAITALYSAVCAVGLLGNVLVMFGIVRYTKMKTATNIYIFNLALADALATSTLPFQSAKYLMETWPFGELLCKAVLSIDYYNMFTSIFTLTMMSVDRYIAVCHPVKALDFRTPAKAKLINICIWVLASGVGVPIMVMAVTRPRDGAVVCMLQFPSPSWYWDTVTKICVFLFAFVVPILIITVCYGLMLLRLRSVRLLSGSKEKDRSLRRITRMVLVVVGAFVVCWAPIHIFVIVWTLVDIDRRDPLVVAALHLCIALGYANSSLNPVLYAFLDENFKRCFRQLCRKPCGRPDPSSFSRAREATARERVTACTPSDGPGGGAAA

In the case of `O=C(O)CSc1cc(C(=O)c2ccccc2O)cn2c(=O)c3c4c(sc3nc12)CCCC4`, the IC50 [1] is reported as 2.62 µM (active), the IC50 [2] is reported as 13.5 µM (active) and the AC50 [3] is reported as 5.07 µM (active). For the same compound, the IC50 [4] was 7.42 µM (active), the IC50 [5] was 19 µM (active) and the IC50 [6] was > 158 µM (not active). The IC50 [7] was 94.1 µM (active), the IC50 [8] was 19.5 µM (active) and the IC50 [9] was 0.576 µM (active). The IC50 [10] was > 99 µM (inactive) and the IC50 [11] was 14.1 µM (active).

In the case of `CCOc1ccc(/C=C2\SC(=S)N(CCC(=O)O)C2=O)cc1`, the IC50 [12] is reported as < 0.16 µM (active), the AC50 [13] is reported as 0.577 µM (active) and the AC50 [14] is reported as > 35 µM (active). For the same compound, the IC50 [15] was > 80 µM (inactive) and the AC50 [16] was > 35 µM (active).

In the case of `Cc1ccccc1Cn1c(O)c(N=NC(S)=Nc2ccccc2F)c2ccccc21`, the EC50 [17] is reported as > 92.5 µM (inactive), the EC50 [18] is reported as 0.87 µM (active) and the EC50 [19] is reported as > 92.5 µM (inactive). For the same compound, the AC50 [20] was 3.18 µM (active) and the EC50 [21] was > 92.5 µM (inactive).
